Residues, ends and D or L forms follow the SMILES beside them. *: point of attachment. Cbz = O=C(OCc1ccccc1)*
How the values were obtained:
Notch3 receptor [1] = test: Western blotting of Notch3 protein in T-ALL cell lines; assay type: cell-based, human; conditions: 16 hours; for Notch3 protein levels, inhibitor added to TSA: MOLT3 and TALL1 cells, with proteasome or lysosome inhibitor
Method: In particular, in FIG. 1A is shown the three cell lines of T-ALL MOLT3, Jurkat and DND41 were treated for 16 hours in vitro with TSA 500 nM.
MOLT3 cells shown in FIG. 3A and TALL1 cells shown in FIG. 3B were treated with TSA 500 nM for 16 hours, and simultaneously in the presence or absence of a proteasome (MG132) or lysosome (chloroquine—CHL) inhibitor. […] The numbers below the bands refer to densitometric analysis.
In FIG. 4A, T-ALL cell lines and primary cells were treated in vitro for 16 hours with the HDAC6 inhibitor Tubacin (2 μM, TUB), HDAC1 inhibitor (2 μM, HDAC1i), or HDAC8 inhibitor (2 μM, HDAC8i). […] In FIG. 4C, the three cell lines of T-ALL MOLT3, Jurkat and DND41 (left) and n=3 primary lines (right) were treated for 24 hours in vitro with the compounds previously described, and cell death was evaluated by marking with Annexin V and analysis by cytofluorometer (*P<0.05, **P<0.01, ***P<0.001, mean±SD of three independent experiments).
(§1) In FIGS. 6A-6C, MOLT3 and TALL1 cell lines were infected with two different lentiviruses that block HDAC6 expression (shHDAC6 #1 and #2).
(§2) In FIG. 8A, JURKAT cells were treated in vitro with rocilinostat at a concentration of 8 μM for 16 hours.

[2] = system: acetylated tubulin (Ac. α Tub.); test: Western blotting of acetylated tubulin in T-ALL cell lines; assay type: cell-based, human; conditions: 16 hours
Method: (§3) In particular, in FIG. 1A is shown the three cell lines of T-ALL MOLT3, Jurkat and DND41 were treated for 16 hours in vitro with TSA 500 nM. The western blotting confirms the decrease of the full length (FL) Notch3 receptor after treatment. Inhibition of HDACs is confirmed by the increase of acetylated tubulin (Ac. α Tub.). […] The treatment with TSA is accompanied by a decrease in the target genes pTα, CR2, DTX-1 in the cell lines shown in FIG. 1D and in the primary cells shown in FIG. 1E. (*P<0.05, **P<0.01, ***P<0.001, mean±SD of three independent experiments).
as §2

[3] = system: Notch3 receptor present in the membrane; test: Cytofluorometric analysis of Notch3 membrane expression in T-ALL cells; assay type: cell-based, human
[4] = system: T-ALL cell lines and primary lines; test: Cell death by annexin V marking and cytofluorometer in T-ALL cells; assay type: cell-based, human; conditions: 24 hours
Method: (§4) In FIG. 2A and the 7 primary lines shown in FIG. 2B were treated for 24 hours in vitro with TSA 500 nM. Cell death was evaluated by marking with annexin V and analysis with the cytofluorometer. Proliferation inhibition shown in FIG. 2C was assessed in the MOLT3 line by cell count (left panel) and MTS assay (right panel). In FIG. 2D, the Jurkat cells were infected with a control virus (RV-CNTR) or with an expressing Notch3 virus (RV-N3) and subsequently treated with TSA 500 nM for 24 hours. Cell death was evaluated by a luminescence assay for caspase activation (*P<0.05, **P<0.01, ***P<0.001, mean±SD of three independent experiments).
(§5) In FIG. 4A, T-ALL cell lines and primary cells were treated in vitro for 16 hours with the HDAC6 inhibitor Tubacin (2 μM, TUB), HDAC1 inhibitor (2 μM, HDAC1i), or HDAC8 inhibitor (2 μM, HDAC8i). Treatment with Tubacin is shown in FIG. 4B, but not with the other inhibitors, is accompanied by a decrease in the target genes pTα, CR2, DTX-1. In FIG. 4C, the three cell lines of T-ALL MOLT3, Jurkat and DND41 (left) and n=3 primary lines (right) were treated for 24 hours in vitro with the compounds previously described, and cell death was evaluated by marking with Annexin V and analysis by cytofluorometer (*P<0.05, **P<0.01, ***P<0.001, mean±SD of three independent experiments).
In FIG. 5 the T-ALL cell lines were treated in vitro for 24 hours with the HDAC6 Tubacin inhibitor (2 μM, TUB) and cell death was assessed by marking with Annexin V and analysis by cytofluorometer (*P<0.05, **P<0.01, ***P<0.001, mean±SD of three independent experiments).
as §2

two T-ALL cell lines = test: Cell viability by ATPlite assay; assay type: cell-based, human; conditions: 48 hours, indicated concentrations
Notch3 [5] = test: Western blotting of Notch3 in MDA-MB-468 cells; assay type: cell-based; conditions: 8 μM
Method: (§6) In the assay of FIG. 11, Rocilinostat (ACY 1215) is used at a concentration of 8 μM in MDA-MB-468 cells. The expression of Notch3 and other markers was evaluated in cellular lysate by Western blotting.

HDAC6 = test: Western blotting, inhibition of the target HDAC6 in MDA-MB-468 cells; assay type: cell-based; conditions: 8 μM
Method: as §6

Notch3 [6] = test: Cytofluorometric evaluation of Notch3 expression in MDA-MB-468 cells; assay type: cell-based
Method: The graph of FIG. 12 confirms the reduction of Notch3 expression in MDA-MB-468 cell membrane after treatment with rocilinostat (8 μM) at 24 hours, in accordance with the results of the WB.
For the assay of FIG. 13, the following protocol was used:
(§7) Day 1: coating of plate with Notch ligands (ligand concentration 4 ng/uL)
(§8) Day 3 treatment with rocilinostat (16 μM) or control (DMSO)
Day 4: Marking+reading by cytofluorometer

[7] = system: MDA-MB-468 breast cancer cells; test: Cell mortality by Annexin V/propidium iodide in MDA-MB-468 cells; assay type: cell-based; conditions: 16 μM
Method: For the assay of FIG. 14, the following protocol was used:
(§9) Day 1: coating (ligand concentration 4 ng/uL)
(§10) Day 3 treatment with 16 μM rocilinostat
Day 5: marking with Annexin V/propidium iodide+reading of mortality by cytofluorometer

HCC-1143 cells = test: Dose-response growth curve in HCC-1143 cells; assay type: cell-based
NOTCH3 FL protein = test: Notch3 FL protein levels in HCC-1143 cells; assay type: cell-based; conditions: 8 μM, 24 hours
Method: (§11) To evaluate the effects of rocilinostat on Notch3 expression in HCC-1143 cells, HCC-1143 cells were treated in vitro with rocilinostat at a concentration of 8 μM for 24 hours. […] The increase in acetylated tubulin levels confirms the activity of rocilinostat.

acetylated tubulin = test: Acetylated tubulin levels in HCC-1143 cells; assay type: cell-based; conditions: 8 μM, 24 hours
Method: as §11

Notch3 [8] = test: Cytofluorometric evaluation of Notch3 membrane expression in HCC-1143 cells; assay type: cell-based
Method: The following protocol was used for the graphs of FIG. 18:
as §7, §8
Day 4: marking+reading by cytofluorometer

[9] = system: HCC1143 breast cancer cells; test: Cell mortality by Annexin V/propidium iodide in HCC-1143 cells; assay type: cell-based; conditions: 16 μM
Method: For the graphs of FIG. 19, the following protocol was used:
as §9, §10
Day 5: marking with Annexin V/propidium iodide+reading of mortality by cytofluorometer.

Notch3 receptor [10] = test: Notch3 protein levels in patient-derived primary T-ALL lines; assay type: cell-based, human; conditions: n=7 patient-derived primary lines; TSA 500 nM, 16 hours
Method: Initially we treated 3 T-ALL cell lines in the laboratory with Tricostatin A (TSA), a generic commercial inhibitor that inhibits the whole class of HDACs that is commonly used in experimental practices. […] The same result was obtained by treating 7 patient-derived primary lines in vitro with TSA.
as §3

[11] = system: target genes pTα, CR2, DTX-1; test: Expression of Notch target genes in T-ALL cell lines and primary cells; assay type: cell-based, human
Method: as §3, §5

MOLT3 line = test: Proliferation by cell count and MTS assay; assay type: cell-based, human; conditions: TSA
Method: as §4

[12] = system: Jurkat, MOLT3 and TALL1 cells; test: Cell death by luminescence assay for caspase activation; assay type: cell-based, human; conditions: TSA 500 nM, 24 hours
Method: as §4, §1

[13] = system: Notch3 and the lysosomal marker LAMP2; test: Immunofluorescence analysis of Notch3/LAMP2 co-localization; assay type: cell-based; conditions: after treatment with TSA, N=21 cells
TALL1 cells = test: Cytotoxicity seen as reduction of actin in Western blot; assay type: cell-based, human; conditions: 20 μM
[14] = MOLT3, Jurkat and DND41, TSA 500 nM

O=C(CCCCCCNC(=O)c1cnc(N(c2ccccc2)c2ccccc2)nc1)NO [rocilinostat, ricolinostat]
levels of the NOTCH3 FL protein, Western blotting (Notch3 receptor [1]; JURKAT cells, 8 μM): decreases
acetylated tubulin levels ([2]; JURKAT cells, 8 μM): increase
Notch3 membrane expression ([3]; TALL1 cells, 8 μM, 16 hours): reduces
apoptosis (annexin V) ([4]; JURKAT and TALL1, 8 μM): strong increase of cell death
cell viability (ATPlite assay) (two T-ALL cell lines): marked negative effect on cell growth
Notch3 expression, Western blotting (Notch3 [5]; 16 hours): not reduced
Notch3 expression, Western blotting (Notch3 [5]; 24 hours): drop in Notch3
target (HDAC6) inhibition (HDAC6; 16 hours): inhibited
target (HDAC6) inhibition (HDAC6; 24 hours): inhibited
target (HDAC6) inhibition (HDAC6; 48 hours): no longer inhibited
Notch3 expression in cell membrane (Notch3 [6]; 8 μM, 24 hours): reduction
Notch3 expression, intensity of expression (MFI) (Notch3 [6]; 16 μM): marked negative effect
Notch3 expression, percentage of positive cells (%) (Notch3 [6]; 16 μM): marked negative effect
effect on Notch3 expression in the presence of Notch ligands (JAG1 and DLL4) (Notch3 [6]; 16 μM, ligand 4 ng/uL): not substantially affected
cell mortality (Annexin V/propidium iodide) ([7]; Day 3 to Day 5): causes the death
cell mortality in the presence of Notch ligands (JAG1 and DLL4) ([7]; ligand 4 ng/uL): maintained or slightly increased
growth of HCC-1143 cells (dose-response curve) (HCC-1143 cells): inhibits the growth of HCC-1143 cells with dose-dependent effects
levels of NOTCH3 FL protein (NOTCH3 FL protein): decreases
acetylated tubulin levels (acetylated tubulin): increase
Notch3 expression, intensity of expression (MFI) (Notch3 [8]; 16 μM): more evident
Notch3 expression, percentage of positive cells (%) (Notch3 [8]; 16 μM): moderate negative effect
effects on Notch3 expression in the presence of Notch ligands (JAG1 and DLL4) (Notch3 [8]; 16 μM, ligand 4 ng/uL): not much influenced
Notch3 membrane expression (Notch3 [8]; rocilinostat alone): reduction
cell mortality (Annexin V/propidium iodide) ([9]; Day 3 to Day 5): causes the death
cell mortality in the presence of Notch ligands (JAG1 and DLL4) ([9]; ligand 4 ng/uL): maintained

CC(/C=C/C(=O)NO)=C\[C@@H](C)C(=O)c1ccc(N(C)C)cc1 [TSA, Tricostatin A]
full length (FL) Notch3 receptor, western blotting (Notch3 receptor [1]; [14]): decrease
acetylated tubulin (Ac. α Tub.) [2, 14]: increase
Notch3 receptor present in the membrane ([3]; Jurkat cells, Notch2/3 antibody, cytofluorometer, TSA): decrease
Notch3 receptor protein levels (Notch3 receptor [10]): confirming the result seen in the cell lines
target genes pTα, CR2, DTX-1 ([11]; cell lines and primary cells, treatment with TSA): decrease
cell death (annexin V) ([4]; T-ALL cell lines and 7 primary lines, TSA 500 nM): induction of cell death
proliferation (cell count, MTS assay) (MOLT3 line): inhibition of proliferation
cell death (caspase activation) after restoring Notch3 levels (RV-N3 vs RV-CNTR) [12]: die significantly less
co-localization between Notch3 and LAMP2 [13]: increase in co-localization

CCN(CC)CCCC(C)Nc1ccnc2cc(Cl)ccc12 (stereo not drawn) [Chloroquine, chloroquine]
Notch3 protein levels, inhibitor added to TSA (Notch3 receptor [1]; TSA 500 nM): decrease of Notch3 blocked

CC(C)C[C@H](NC(=O)[C@H](Cc1ccccc1)NC(=O)c1cnccn1)B(O)O [Bortezomib]
Notch3 expression ([3]; TALL1 cells, 20 μM): negative effect
cytotoxicity (reduction of actin in Western blot) (TALL1 cells): high cytotoxicity

CC(C)C[C@@H](C=O)NC(=O)[C@H](CC(C)C)NC(=O)[C@H](CC(C)C)NC(=O)OCc1ccccc1 [MG132] (Cbz-Leu-Leu-Leu-aldehyde)
Notch3 protein levels, inhibitor added to TSA (Notch3 receptor [1]; TSA 500 nM): further lowers

O=C(CCCCCCC(=O)Nc1ccc([C@H]2O[C@@H](CSc3nc(-c4ccccc4)c(-c4ccccc4)o3)C[C@@H](c3ccc(CO)cc3)O2)cc1)NO [Tubacin]
decrease in Notch3 protein levels (Notch3 receptor [1]; T-ALL cell lines and primary cells, 2 μM): effects comparable to the generic TSA inhibitor
target genes pTα, CR2, DTX-1 ([11]; T-ALL cells, 2 μM, 16 hours): decrease
cell death (annexin V) ([4]; MOLT3, Jurkat, DND41 and n=3 primary lines, 2 μM): effects comparable to the generic TSA inhibitor
sensitivity of TALL1 cell line compared with other cell lines (cell death, Annexin V) ([4]; Tubacin 2 μM): significantly more sensitive

From patent publication US11478475B2, “Inhibitor of histone deacetylase 6 in the treatment of t-cell acute lymphoblastic leukemia (T-ALL) and other neoplasia with high expression of notch-3” (ISTITUTO ONCOLOGICO VENETO IOV-IRCCS, priority 2017, dated 2022)
